The values below come from patent US20250215010A1, “DIAZABICYCLOOCTANE DERIVATIVES USEFUL AS MATRIX METALLOPROTEINASE INHIBITORS” (VASA THERAPEUTICS SPOLKA Z OGRANICZONA ODPOWIEDZIALNOSCIA, priority 2022, published 2025).

Format in all cases: biochemical
The target of one experiment is T1, MMP2 (Homo sapiens, UniProt P08253).
T1 sequence (P08253 110-660): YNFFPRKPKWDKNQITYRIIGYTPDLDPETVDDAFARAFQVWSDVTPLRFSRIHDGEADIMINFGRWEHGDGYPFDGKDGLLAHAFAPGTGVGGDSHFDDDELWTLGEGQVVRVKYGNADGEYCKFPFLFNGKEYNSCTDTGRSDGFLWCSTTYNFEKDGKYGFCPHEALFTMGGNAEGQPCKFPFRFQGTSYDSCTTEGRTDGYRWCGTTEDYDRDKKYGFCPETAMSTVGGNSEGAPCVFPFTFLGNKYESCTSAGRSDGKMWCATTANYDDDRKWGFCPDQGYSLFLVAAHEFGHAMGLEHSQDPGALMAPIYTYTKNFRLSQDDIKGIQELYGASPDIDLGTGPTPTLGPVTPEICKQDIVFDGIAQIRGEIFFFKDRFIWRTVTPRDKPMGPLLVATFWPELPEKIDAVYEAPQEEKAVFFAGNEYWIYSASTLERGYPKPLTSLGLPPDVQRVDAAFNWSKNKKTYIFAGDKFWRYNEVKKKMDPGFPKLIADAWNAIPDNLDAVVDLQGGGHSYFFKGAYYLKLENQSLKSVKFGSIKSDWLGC
The experiment is described as follows: MMP-2 colorimetric inhibition assay (Enzo kit BML-AK408). The protocol: (§1) The inhibitory activities of the compounds of the invention were assessed in 96-well microplate format using MMP1, MMP2, MMP9 and MMP13 colorimetric assay kits and TACE fluorometric assay kit from Enzo Life Sciences, Inc. The inhibitory effect of the compounds of the invention on ADAM10 activity were evaluated in 96-well microplate format using fluorometric assay from AnaSpec, Inc.
The MMP-2 Colorimetric Drug Discovery Kit (catalog #BML-AK408) is a complete assay system designed to screen MMP-2 inhibitors using a thiopeptide as a chromogenic substrate (Ac-PLG-[2-mercapto-4-methylpentanoyl]-LG-OC2H5). The MMP cleavage site peptide bond is replaced by a thioester bond in the thiopeptide. Hydrolysis of this bond by an MMP produces a sulfhydryl group, which reacts with DTNB [5,5′-dithiobis(2-nitrobenzoic acid), Ellman's reagent] to form 2-nitro-5-thiobenzoic acid, that can be detected spectrophotometrically.
(§2) The inhibitory activities of the compounds of the invention against MMP1, MMP2, MMP9 and MMP13 were tested according to the manufacturer's assay protocols and the absorbance at 415 nm was monitored using the Tecan Infinite® 200 Pro F Nano^+ microplate reader.
(§3) The normalized values were analyzed using GraphPadPrism 9 for Windows (GraphPad Software, San Diego, CA, USA) software by plotting inhibition curves and determining the IC50 values (in nM).

A further experiment addresses MMP9 (Homo sapiens, UniProt P14780). The experiment in a line: MMP-9 colorimetric inhibition assay (Enzo kit BML-AK410). The protocol:
as §1
The MMP-9 Colorimetric Drug Discovery Kit (catalog #BML-AK410) is a complete assay system designed to screen inhibitors of matrix metalloproteinase-9 using a thiopeptide as a chromogenic substrate (Ac-PLG-[2-mercapto-4-methylpentanoyl]-LG-OC2H5). The MMP cleavage site peptide bond is replaced by a thioester bond in the thiopeptide. Hydrolysis of this bond by an MMP produces a sulfhydryl group, which reacts with DTNB [5,5′-dithiobis(2-nitrobenzoic acid), Ellman's reagent] to form 2-nitro-5-thiobenzoic acid, that can be detected spectrophotometrically.
as §2, §3

For another experiment, the target named is T2, MMP13 (Homo sapiens, UniProt P45452).
T2 construct: purchased Enzo Life Sciences, Inc. BML-AK412
The experiment in a line: MMP-13 colorimetric inhibition assay (Enzo kit BML-AK412). On the procedure:
as §1
The MMP-13 Colorimetric Drug Discovery Kit (catalog #BML-AK412) is a complete assay system designed to screen inhibitors of matrix metalloproteinase-13 using a thiopeptide as a chromogenic substrate (Ac-PLG-[2-mercapto-4-methylpentanoyl]-LG-OC2H5). The MMP cleavage site peptide bond is replaced by a thioester bond in the thiopeptide. Hydrolysis of this bond by an MMP produces a sulfhydryl group, which reacts with DTNB [5,5′-dithiobis(2-nitrobenzoic acid), Ellman's reagent] to form 2-nitro-5-thiobenzoic acid, that can be detected spectrophotometrically.
as §2, §3

The target of the next experiment is T3, MMP1 (Homo sapiens, UniProt P03956).
T3 sequence (P03956 100-269 limits assumed): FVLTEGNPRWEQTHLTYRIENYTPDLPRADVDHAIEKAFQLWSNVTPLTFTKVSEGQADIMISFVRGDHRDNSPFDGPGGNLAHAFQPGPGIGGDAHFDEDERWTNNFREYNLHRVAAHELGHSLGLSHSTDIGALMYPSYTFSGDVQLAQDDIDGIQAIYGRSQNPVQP
The experiment in a line: MMP-1 colorimetric inhibition assay (Enzo kit BML-AK404). On the procedure:
as §1
The MMP-1 Colorimetric Drug Discovery Kit (catalog #BML-AK404) is a complete assay system designed to screen inhibitors of matrix metalloproteinase-1 using a thiopeptide as a chromogenic substrate (Ac-PLG-[2-mercapto-4-methylpentanoyl]-LG-OC2H5). The MMP cleavage site peptide bond is replaced by a thioester bond in the thiopeptide. Hydrolysis of this bond by an MMP produces a sulfhydryl group, which reacts with DTNB [5,5′-dithiobis(2-nitrobenzoic acid), Ellman's reagent] to form 2-nitro-5-thiobenzoic acid, that can be detected spectrophotometrically.
as §2, §3

A further experiment addresses ADAM17 (TACE) (Homo sapiens, UniProt P78536). The experiment is described as follows: TACE fluorometric inhibition assay (Enzo kit BML-AK310). On the procedure:
as §1
The TACE Fluorometric Drug Discovery Kit (catalog #BML-AK310) is a complete assay system designed to screen ADAM17 (TACE) inhibitors using a quenched fluorogenic peptide: Mca-PLAQAV-Dpa-RSSSR—NH2. Mca fluorescence is quenched by the Dpa group until cleavage by proteases separates the two moieties leading to an increase in Mca fluorescence.
The inhibitory activity of the compounds of the invention against TACE was tested according to the manufacturer's assay protocol and the fluorescence was monitored at excitation/emission wavelengths=320 nm/420 nm using Tecan Infinite® 200 Pro F Nano^+ microplate reader.
as §3

The mark [1] stands for this setting: thiopeptide substrate, absorbance 415 nm, read-out: MMP 2 IC50 class.
Setting [2] is: thiopeptide substrate, absorbance 415 nm, read-out: MMP 9 IC50 class.
Setting [3] is: thiopeptide substrate, absorbance 415 nm, read-out: MMP 13 IC50 class.
Setting [4] is: thiopeptide substrate, absorbance 415 nm, read-out: MMP 1 IC50 class.
The mark [5] stands for this setting: quenched fluorogenic peptide, ex/em 320/420 nm, read-out: TACE IC50 class.

Read-outs that look alike come from different tables or passages of the source. A value given as a limit tells only on which side of the number the result lay.

Sequence of MMP9 (P14780 94-707): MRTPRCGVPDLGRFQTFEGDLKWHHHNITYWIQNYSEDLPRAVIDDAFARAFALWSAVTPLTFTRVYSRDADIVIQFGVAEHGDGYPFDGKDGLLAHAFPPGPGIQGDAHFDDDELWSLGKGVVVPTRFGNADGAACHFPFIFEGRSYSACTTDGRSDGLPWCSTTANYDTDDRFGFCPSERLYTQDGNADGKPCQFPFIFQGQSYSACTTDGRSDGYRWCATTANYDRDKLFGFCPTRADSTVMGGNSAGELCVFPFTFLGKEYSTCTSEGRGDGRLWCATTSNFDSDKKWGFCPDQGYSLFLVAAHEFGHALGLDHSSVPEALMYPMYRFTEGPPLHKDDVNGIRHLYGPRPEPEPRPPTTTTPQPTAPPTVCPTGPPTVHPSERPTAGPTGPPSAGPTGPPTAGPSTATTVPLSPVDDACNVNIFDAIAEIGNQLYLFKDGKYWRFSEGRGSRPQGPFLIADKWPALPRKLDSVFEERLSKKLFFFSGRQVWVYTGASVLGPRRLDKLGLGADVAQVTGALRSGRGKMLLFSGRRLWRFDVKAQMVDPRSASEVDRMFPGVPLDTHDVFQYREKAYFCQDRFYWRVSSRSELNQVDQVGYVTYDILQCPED
Sequence of ADAM17 (TACE) (P78536 215-477 limits assumed): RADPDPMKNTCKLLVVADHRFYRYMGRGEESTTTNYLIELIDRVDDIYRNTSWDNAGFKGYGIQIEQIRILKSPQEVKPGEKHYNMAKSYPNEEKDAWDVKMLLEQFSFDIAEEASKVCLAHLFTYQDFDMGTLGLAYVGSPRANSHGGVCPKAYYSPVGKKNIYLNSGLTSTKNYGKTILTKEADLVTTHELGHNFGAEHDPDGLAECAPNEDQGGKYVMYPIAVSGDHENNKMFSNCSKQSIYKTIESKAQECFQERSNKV

By IC50 is commonly meant the concentration that inhibits the measured activity by half. In the case of `COCCOC(=O)N1[C@@H]2CC[C@H]1[C@H](C(=O)NO)N(S(=O)(=O)c1cc(F)c(Oc3ccc(Cl)cc3)c(F)c1)C2` [Example 2, (1S,2R,5R)-2-methoxyethyl 3-((4-(4-chlorophenoxy)-3,5-difluoro-phenyl)sulfonyl)-2-(hydroxycarbamoyl)-3,8-diazabicyclo-[3.2.1]octane-8-carboxylate], the IC50 at MMP2 (setting [1]), on MMP9 (setting [2]) and at MMP13 (setting [3]) was 0.05 to 1 µM in each case.
As for `COCCOC(=O)N1[C@H]2CC[C@@H]1[C@@H](C(=O)NO)N(S(=O)(=O)c1cc(F)c(Oc3ccc(Cl)cc3)c(F)c1)C2` [Example 3, 2-methoxyethyl (1R,2S,5S)-3-((4-(4-chlorophenoxy)-3,5-difluorophenyl)-sulfonyl)-2-(hydroxycarbamoyl)-3,8-diaza-bicyclo[3.2.1]octane-8-carboxylate], the concentration for half-maximal inhibition (IC50) at MMP2 (setting [1]), on MMP9 (setting [2]) and at MMP13 (setting [3]) was 1 to 10 µM each time.
Take `COCCOC(=O)N1[C@@H]2CC[C@H]1[C@H](C(=O)NO)N(S(=O)(=O)c1ccc(-c3cccc(F)c3)nc1)C2` [Example 4, 2-methoxyethyl (1S,2R,5R)-3-((6-(3-fluorophenyl)pyridin-3-yl)sulfonyl)-2-(hydroxycarbamoyl)-3,8-diaza-bicyclo[3.2.1]octane-8-carboxylate]: the results for the IC50 on MMP2 (setting [1]), at MMP9 (setting [2]) and on MMP13 (setting [3]) were 0.05 to 1 µM, 1 to 10 µM and 0.05 to 1 µM, respectively.
For the compound `COCCOC(=O)N1[C@@H]2CC[C@H]1[C@H](C(=O)NO)N(S(=O)(=O)c1cnc(Oc3ccc(F)cc3)c(F)c1)C2` [Example 6, 2-methoxyethyl (1S,2R,5R)-3-((5-fluoro-6-(4-fluoro-phenoxy)pyridin-3-yl)sulfonyl)-2-(hydroxycarbamoyl)-3,8-diazabicyclo[3.2.1]-octane-8-carboxylate], the IC50 at MMP1 (setting [4]) was 1 to 10 µM; on MMP2 (setting [1]), less than 0.05 µM; at MMP9 (setting [2]) it was less than 0.05 µM; on MMP13 (setting [3]), less than 0.05 µM; at ADAM17 (TACE) (setting [5]), 1 to 10 µM.
In the case of `COCCOC(=O)N1[C@@H]2CC[C@H]1[C@H](C(=O)NO)N(S(=O)(=O)c1ccc(OC3CCC(OC)CC3)nc1)C2` (stereo partly drawn) [Example 11, 2-methoxyethyl (1S,2R,5R)-2-(hydroxycarbamoyl)-3-((6-((4-methoxy-cyclohexyl)oxy)-pyridin-3-yl)-sulfonyl)-3,8-diaza-bicyclo[3.2.1]octane-8-carboxylate], the IC50 against MMP1 was 1 to 10 µM; at MMP2, less than 0.05 µM; against MMP9 it was less than 0.05 µM; against MMP13, 0.05 to 1 µM; on ADAM17 (TACE), 1 to 10 µM.
For `COCCOC(=O)N1[C@@H]2CC[C@H]1[C@H](C(=O)NO)N(S(=O)(=O)c1ccc(OC3CCC(C)(C)CC3)nc1)C2` [Example 12, 2-methoxyethyl (1S,2R,5R)-3-((6-((4,4-dimethyl-cyclohexyl)-oxy)pyridin-3-yl)-sulfonyl)-2-(hydroxycarbamoyl)-3,8-diazabicyclo[3.2.1]-octane-8-carboxylate], the IC50 on MMP1 (setting [4]) is 1 to 10 µM; on MMP2 (setting [1]), 0.05 to 1 µM; at MMP9 (setting [2]), less than 0.05 µM; on MMP13 (setting [3]), 0.05 to 1 µM; at ADAM17 (TACE) (setting [5]), 1 to 10 µM.
Regarding `COCCOC(=O)N1[C@@H]2CC[C@H]1[C@H](C(=O)NO)N(S(=O)(=O)c1ccc(OC3CCOCC3)nc1)C2` [Example 13, 2-methoxyethyl (1S,2R,5R)-2-(hydroxycarbamoyl)-3-((6-((tetrahydro-2H-pyran-4-yl)oxy)-pyridin-3-yl)sulfonyl)-3,8-diazabicyclo[3.2.1]-octane-8-carboxylate], the IC50 is 1 to 10 µM on MMP1 (setting [4]); 0.05 to 1 µM on MMP2 (setting [1]); less than 0.05 µM on MMP9 (setting [2]); less than 0.05 µM at MMP13 (setting [3]); 1 to 10 µM on ADAM17 (TACE) (setting [5]).
`COCCOC(=O)N1[C@@H]2CC[C@H]1[C@H](C(=O)NO)N(S(=O)(=O)c1ccc(Oc3ccc(F)cc3)cn1)C2` [Example 14, 2-methoxyethyl (1S,2R,5R)-3-((5-(4-fluorophenoxy)pyridin-2-yl)sulfonyl)-2-(hydroxycarbamoyl)-3,8-diazabicyclo[3.2.1]octane-8-carboxylate]: the IC50 on MMP1 (setting [4]) was 1 to 10 µM; on MMP2 (setting [1]) it was less than 0.05 µM; on MMP9 (setting [2]) it was less than 0.05 µM; at MMP13 (setting [3]), less than 0.05 µM; on ADAM17 (TACE) (setting [5]), 1 to 10 µM.
Take `COCCOC(=O)N1[C@@H]2CC[C@H]1[C@H](C(=O)NO)N(S(=O)(=O)c1ccc(Oc3cncc(Cl)c3)nc1)C2` [Example 15, (1S,2R,5R)-2-methoxyethyl 3-((6-((5-chloropyridin-3-yl)oxy)pyridin-3-yl)-sulfonyl)-2-(hydroxycarbamoyl)-3,8-diazabicyclo[3.2.1]-octane-8-carboxylate]: the IC50 on MMP1 (setting [4]) lay within 1 to 10 µM; at MMP2 (setting [1]), 0.05 to 1 µM; at MMP9 (setting [2]) it was 0.05 to 1 µM; on MMP13 (setting [3]), 0.05 to 1 µM; at ADAM17 (TACE) (setting [5]), 0.05 to 1 µM.
For the compound `COCCOC(=O)N1[C@@H]2CC[C@H]1[C@H](C(=O)NO)N(S(=O)(=O)c1ccc(Oc3nc4cc(F)ccc4o3)c(F)c1)C2` [Example 83, 2-methoxyethyl (1S,2R,5R)-3-((3-fluoro-4-((5-fluoro-benzo[d]oxazol-2-yl)oxy)phenyl)sulfonyl)-2-(hydroxy-carbamoyl)-3,8-diazabicyclo[3.2.1]-octane-8-carboxylate], the IC50 at MMP2 (setting [1]), on MMP9 (setting [2]) and on MMP13 (setting [3]) was 1 to 10 µM throughout.
Regarding `COCCOC(=O)N1[C@@H]2CC[C@H]1[C@H](C(=O)NO)N(S(=O)(=O)c1ccc(Oc3nc4ccccc4o3)nc1)C2` [Example 84, 2-methoxyethyl (1S,2R,5R)-3-((6-(benzo[d]oxazol-2-yloxy)pyridin-3-yl)sulfonyl)-2-(hydroxycarbamoyl)-3,8-diazabicyclo[3.2.1]octane-8-carboxylate], the IC50 on MMP2 (setting [1]), on MMP9 (setting [2]) and at MMP13 (setting [3]) was more than 10 µM each time.
